Experimental data from ChEMBL document CHEMBL5608163, “Structure modification of anoplin for fighting resistant bacteria” (Eur J Med Chem, 2024).
Values after ≈ are worked out from the molar mass of the structure shown. Bridge positions count the residues as written; N and C are the ends. Square brackets hold non-standard residues; d marks the D form. Peptide text beside a SMILES is read from it. I, II: the chains in the order shown. * marks the point of attachment. ξ: configuration not given here. Tridecanoyl = CCCCCCCCCCCCC(=O)*; Undecanoyl = CCCCCCCCCCC(=O)*; Nonanoyl = CCCCCCCCC(=O)*; Octanoyl = CCCCCCCC(=O)*; ξK = NCCCCC(N)C(=O)O; Butyryl = CCCC(=O)*

Key:
Staphylococcus aureus [1] = test: Antibacterial activity against methicillin-resistant Staphylococcus aureus ATCC 33591 assessed as reduction in bacterial growth incubated for 18 hrs by agar dilution method; type: functional
Enterococcus faecium = test: Antibacterial activity against vancomycin resistant Enterococcus faecium ATCC 700221 assessed as inhibition of bacterial growth incubated for 48 hrs by CLSI-based broth microdilution assay; type: functional
[2] = Hemolytic activity in human RBC assessed as hemolysis measured after 24 hrs; type: toxicity, cell-based, Erythrocyte; conditions: red blood cells
Staphylococcus aureus [3] = test: Antibacterial activity against Staphylococcus aureus ATCC 25923 assessed as reduction in bacterial cell growth measured for 18 hrs by Mueller-Hinton broth based two-fold serial dilution method; type: functional
Bacillus subtilis [4] = test: Antibacterial activity against Bacillus subtilis ATCC 23857 assessed as reduction in bacterial cell growth measured for 18 hrs by Mueller-Hinton broth based two-fold serial dilution method; type: functional
Escherichia coli [5] = test: Antibacterial activity against Escherichia coli ATCC 25922 assessed as reduction in bacterial cell growth measured for 18 hrs by Mueller-Hinton broth based two-fold serial dilution method; type: functional
Pseudomonas aeruginosa [6] = test: Antibacterial activity against Pseudomonas aeruginosa ATCC 27853 assessed as reduction in bacterial cell growth measured for 18 hrs by Mueller-Hinton broth based two-fold serial dilution method; type: functional
Klebsiella pneumoniae [7] = test: Antibacterial activity against Klebsiella pneumoniae ATCC 700603 assessed as reduction in bacterial cell growth measured for 18 hrs by Mueller-Hinton broth based two-fold serial dilution method; type: functional
Staphylococcus aureus [8] = test: Antibacterial activity against Staphylococcus aureus ATCC 25923 assessed as reduction in bacterial cell growth incubated for 16 to 24 hrs by CLSI-protocol based Mueller-Hinton Broth micro-dilution method; type: functional; conditions: time 16-24 hrs
Bacillus subtilis [9] = test: Antibacterial activity against Bacillus subtilis ATCC 23857 assessed as reduction in bacterial cell growth incubated for 16 to 24 hrs by CLSI-protocol based Mueller-Hinton Broth micro-dilution method; type: functional; conditions: time 16-24 hrs
Escherichia coli [10] = test: Antibacterial activity against Escherichia coli ATCC 25922 assessed as reduction in bacterial cell growth incubated for 16 to 24 hrs by CLSI-protocol based Mueller-Hinton Broth micro-dilution method; type: functional; conditions: time 16-24 hrs
Pseudomonas aeruginosa [11] = test: Antibacterial activity against Pseudomonas aeruginosa ATCC 27853 assessed as reduction in bacterial cell growth incubated for 16 to 24 hrs by CLSI-protocol based Mueller-Hinton Broth micro-dilution method; type: functional; conditions: time 16-24 hrs
Klebsiella pneumoniae [12] = test: Antibacterial activity against Klebsiella pneumoniae ATCC 700603 assessed as reduction in bacterial cell growth incubated for 16 to 24 hrs by CLSI-protocol based Mueller-Hinton Broth micro-dilution method; type: functional; conditions: time 16-24 hrs
Erythrocyte = test: Hemolytic activity in human erythrocyte incubated for 70 mins by absorbance based assay; type: toxicity, cell-based; conditions: 1.167 h

Compound | MIC (Staphylococcus aureus [1]) [µM] | MIC (Enterococcus faecium) [µM] | HC50 at 24 h [2] [µM] | MIC (Staphylococcus aureus [3]) [µM] | MIC (Bacillus subtilis [4]) [µM] | MIC (Escherichia coli [5]) [µM] | MIC (Pseudomonas aeruginosa [6]) [µM] | MIC (Klebsiella pneumoniae [7]) [µM] | MIC (Staphylococcus aureus [8]) [µM] | MIC (Bacillus subtilis [9]) [µM] | MIC (Escherichia coli [10]) [µM] | MIC (Pseudomonas aeruginosa [11]) [µM] | MIC (Klebsiella pneumoniae [12]) [µM] | HC10 (Erythrocyte) [µM]
CC[C@H](C)[C@H](NC(=O)[C@H](CCCCN)NC(=O)[C@H](CCCCN)NC(=O)[C@H](CC(C)C)NC(=O)[C@H](CC(C)C)NC(=O)CN)C(=O)N[C@@H](CCCCN)C(=O)N[C@@H](Cc1c[nH]c2ccccc12)C(=O)N[C@@H](CC(C)C)C(=O)N[C@@H](CC(C)C)C(N)=O (H-GLLKKIKWLL-NH2) | 28.4 (≈ 34.4 µg/mL) | 22.1 (≈ 26.8 µg/mL) | 152 |  |  |  |  |  |  |  |  |  |  | 
CCCCCCCCCCC(=O)NCC(=O)N[C@@H](CC(C)C)C(=O)N[C@@H](CC(C)C)C(=O)N[C@@H](CCCCN)C(=O)N[C@@H](CCCNC(=N)N)C(=O)N[C@H](C(=O)N[C@@H](CCCCN)C(=O)N[C@H](C(=O)N[C@@H](CC(C)C)C(=O)N[C@@H](CC(C)C)C(N)=O)[C@@H](C)O)[C@@H](C)CC (Undecanoyl-GLLKRIKTLL-NH2) |  |  |  | 8 (≈ 10.6 µg/mL) | 4 (≈ 5.29 µg/mL) | 8 (≈ 10.6 µg/mL) | 8 (≈ 10.6 µg/mL) | 8 (≈ 10.6 µg/mL) |  |  |  |  |  | 
CCCCCCCCCCCCC(=O)NCC(=O)N[C@@H](CC(C)C)C(=O)N[C@@H](CC(C)C)C(=O)N[C@@H](CCCCN)C(=O)N[C@@H](CCCNC(=N)N)C(=O)N[C@H](C(=O)N[C@@H](CCCCN)C(=O)N[C@H](C(=O)N[C@@H](CC(C)C)C(=O)N[C@@H](CC(C)C)C(N)=O)[C@@H](C)O)[C@@H](C)CC (Tridecanoyl-GLLKRIKTLL-NH2) |  |  |  | 8 (≈ 10.8 µg/mL) | 4 (≈ 5.4 µg/mL) | 8 (≈ 10.8 µg/mL) | 8 (≈ 10.8 µg/mL) | 16 (≈ 21.6 µg/mL) |  |  |  |  |  | 
CCCCCCCCC(=O)NCC(=O)N[C@@H](CC(C)C)C(=O)N[C@@H](CC(C)C)C(=O)N[C@@H](CCCCN)C(=O)N[C@@H](CCCNC(=N)N)C(=O)N[C@H](C(=O)N[C@@H](CCCCN)C(=O)N[C@H](C(=O)N[C@@H](CC(C)C)C(=O)N[C@@H](CC(C)C)C(N)=O)[C@@H](C)O)[C@@H](C)CC (Nonanoyl-GLLKRIKTLL-NH2) |  |  |  | 8 (≈ 10.4 µg/mL) | 4 (≈ 5.18 µg/mL) | 8 (≈ 10.4 µg/mL) | 8 (≈ 10.4 µg/mL) | 16 (≈ 20.7 µg/mL) |  |  |  |  |  | 
CCCCCCCC(=O)NCC(=O)N[C@@H](CC(C)C)C(=O)N[C@@H](CC(C)C)C(=O)N[C@@H](CCCCN)C(=O)N[C@@H](CCCNC(=N)N)C(=O)N[C@H](C(=O)N[C@@H](CCCCN)C(=O)N[C@H](C(=O)N[C@@H](CC(C)C)C(=O)N[C@@H](CC(C)C)C(N)=O)[C@@H](C)O)[C@@H](C)CC (Octanoyl-GLLKRIKTLL-NH2) |  |  |  |  |  |  |  |  | 8 (≈ 10.2 µg/mL) | 8 (≈ 10.2 µg/mL) | 16 (≈ 20.5 µg/mL) | 8 (≈ 10.2 µg/mL) | 16 (≈ 20.5 µg/mL) | 210.63
CC[C@H](C)[C@H](NC(=O)[C@H](CCCNC(=N)N)NC(=O)[C@H](CCCCN)NC(=O)[C@H](CC(C)C)NC(=O)[C@H](CC(C)C)NC(=O)CN)C(=O)N[C@@H](CCCCN)C(=O)N[C@H](C(=O)N[C@@H](CC(C)C)C(=O)N[C@@H](CC(C)C)C(=O)NCCCCC(NC(=O)[C@H](CC(C)C)NC(=O)[C@H](CC(C)C)NC(=O)[C@@H](NC(=O)[C@H](CCCCN)NC(=O)[C@@H](NC(=O)[C@H](CCCNC(=N)N)NC(=O)[C@H](CCCCN)NC(=O)[C@H](CC(C)C)NC(=O)[C@H](CC(C)C)NC(=O)CN)[C@@H](C)CC)[C@@H](C)O)C(N)=O)[C@@H](C)O (some centres not stated) (I: H-GLLKRIKTLL[ξK]-NH2 / II: H-GLLKRIKTLL; amide I:11-II:C) |  |  |  |  |  |  |  |  | 16 (≈ 38.7 µg/mL) | 4 (≈ 9.67 µg/mL) | 8 (≈ 19.3 µg/mL) | 8 (≈ 19.3 µg/mL) | 8 (≈ 19.3 µg/mL) | 51.2
I: Butyryl-GLLKRIKTLL[ξK][ξK]-NH2 / II: Butyryl-GLLKRIKTLL[ξK] / III: Butyryl-GLLKRIKTLL / IV: Butyryl-GLLKRIKTLL (amide I:11-IV:C, I:12-II:C, II:11-III:C) |  |  |  |  |  |  |  |  | 16 | 16 | 8 | 8 | 32 | 1.06
I: Octanoyl-GLLKRIKTLL[ξK][ξK]-NH2 / II: Octanoyl-GLLKRIKTLL[ξK] / III: Octanoyl-GLLKRIKTLL / IV: Octanoyl-GLLKRIKTLL (amide I:11-IV:C, I:12-II:C, II:11-III:C) |  |  |  |  |  |  |  |  | 256 | 256 | 256 | 256 | 256 | 103.4
